From BindingDB's records for patent US9018255 (Instytut Chemii Organicznej Polskiej Akademii Nauk, 2015)

Target: T1, Thioredoxin (Homo sapiens, UniProt P10599)
T1 sequence (P10599 whole entry): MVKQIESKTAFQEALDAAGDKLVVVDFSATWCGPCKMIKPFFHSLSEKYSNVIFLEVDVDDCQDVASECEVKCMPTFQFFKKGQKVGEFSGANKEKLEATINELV
Assay: In vitro Assay
Details: pH 7.6
Description: The method of determining thioredoxin activity is based on the reduction of insulin by thioredoxin. Thioredoxin is reconstituted is by thioredoxin reductase, with NADPH. The resulting free thiol -SH groups react with 5,5′-dithiobis-2-nitrobenzoic acid (DTNB). The termination of the reaction results in the formation of a […]. […] The reaction was performed at 37° C. over 30 min. in a buffer containing 50 mM Tris-HCl and 20 mM EDTA at a pH of 7.6.

IC50: 8.6 µM
SMILES: C=C(COC(=O)c1c(C(F)(F)F)cccc1C(F)(F)F)C(=O)NCc1ccccc1 [US9018255, 8a]
